Experimental data: PMC7529758, “Over-activation of a nonessential bacterial protease DegP as an antibiotic strategy” (Communications Biology, 2020)
Positions count from the first letter of the chain named. Numbers in names are those of the source. *1 amine or outer side, *2 acyl side, *3 side chain or, on linkers, in order; H or OH if unused. Where a SMILES comes first, the peptide text is derived from it. Bridges are numbered along the chain shown (N, C = ends). Roman numbers before positions name the chains, in order. Where no end group is shown, it is not given here. The star is where a group is joined. TBMB = c1c(C[*:1])cc(C[*:3])cc1C[*:2]; mXylylene = c1cc(C[*:1])cc(C[*:2])c1; Bn = c1ccc(C*)cc1

T1: DegP^WT (E. coli) (UniProt P0C0V0)
T1 sequence: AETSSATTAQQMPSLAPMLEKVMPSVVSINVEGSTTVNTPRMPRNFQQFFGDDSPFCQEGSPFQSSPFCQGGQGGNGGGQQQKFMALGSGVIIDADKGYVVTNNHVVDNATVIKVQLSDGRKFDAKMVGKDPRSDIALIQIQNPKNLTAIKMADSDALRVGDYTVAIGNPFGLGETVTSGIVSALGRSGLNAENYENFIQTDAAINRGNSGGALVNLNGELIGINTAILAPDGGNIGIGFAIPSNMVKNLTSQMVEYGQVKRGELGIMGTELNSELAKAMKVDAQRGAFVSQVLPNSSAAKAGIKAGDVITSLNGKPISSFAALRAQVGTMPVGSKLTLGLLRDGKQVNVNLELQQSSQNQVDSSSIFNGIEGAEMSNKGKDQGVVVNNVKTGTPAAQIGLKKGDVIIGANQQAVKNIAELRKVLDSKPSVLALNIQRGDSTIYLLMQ

T2: DegP^S210A (E. coli, UniProt P0C0V0 27-474, S210A)
T2 sequence: T1 sequence with S210A

B1: TMB_CKYRKL (peptide)
peptide: CKYRKL
modifications: also: three arms joined via TMB (trimer), linker at 1 via TMB, other end not in the chain
B2: DegP^S210A (enzyme, E. coli, UniProt P0C0V0 27-474, looked up)
chain: T1 sequence with S210A
notes: periplasmic protease DegP (HtrA family) of E. coli, active-site mutant S210A; In the crystals it resembles the dodecameric cage of 3OTP (two trimers in the asymmetric unit); also called DegP active-site mutant
B3: MMB_CYYKI (peptide)
peptide: CYYKI
modifications: not fully specified (residue 1); printed as MMB_CYYKI
notes: also called compound with one CYYKI arm; one-arm compound; source: synthetic peptide (SPPS), reacted with benzyl bromide

What was measured:
DegP^S210A [1] = biological target: T3, DegP^S210A (Escherichia coli, UniProt P0C0V0, C83S/C95S/N322C/S236A); assay: FRET assay of DegP cage assembly; type: biochemical
T3 construct: pET22b-degP(full length; C57S/C69S/N296C/S210A)_6His; 6His (C); made in house; host or cells: E. coli (inferred from the pET plasmid)
T3 sequence (P0C0V0 27-474 C83S/C95S/S236A/N322C): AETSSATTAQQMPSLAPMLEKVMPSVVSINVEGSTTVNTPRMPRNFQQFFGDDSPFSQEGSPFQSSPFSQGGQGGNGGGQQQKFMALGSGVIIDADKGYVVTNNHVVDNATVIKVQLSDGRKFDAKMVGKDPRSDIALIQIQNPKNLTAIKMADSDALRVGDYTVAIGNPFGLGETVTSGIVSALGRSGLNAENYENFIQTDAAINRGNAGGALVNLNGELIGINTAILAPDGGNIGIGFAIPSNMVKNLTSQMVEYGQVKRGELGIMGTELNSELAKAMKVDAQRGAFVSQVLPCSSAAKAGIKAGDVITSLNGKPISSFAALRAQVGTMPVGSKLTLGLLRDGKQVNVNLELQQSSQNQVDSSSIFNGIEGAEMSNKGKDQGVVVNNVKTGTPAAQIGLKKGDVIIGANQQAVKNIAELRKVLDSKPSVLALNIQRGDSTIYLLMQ
Protocol: Fluorescence resonance energy transfer (FRET) assay was performed as previously described[14],[22]. Equimolar amounts of fluorescence donor- and acceptor-labeled DegP^S210A (total 0.1, 1 or 3 μM) was mixed in a buffer containing 50 mM sodium phosphate (pH 8) and 100 mM NaCl. Two-fold serial dilutions of activators were added to the DegP mixtures. Alexa Fluor 555 C2-maleinide and 647 C2-maleinide (life technologies) were used as fluorescence dyes. Cage assembly of DegP was monitored by increased FRET ratio using the micro-plate reader (excitation 520 nm, emission 570 or 670 nm, Infinite M200pro, Tecan). Assays were performed in triplicates.

DegP^S210A [2] = biological target: T4, DegP^S210A (Escherichia coli, UniProt P0C0V0, S236A); assay: Isothermal titration calorimetry; type: binding; details: ITC; for Kd: Kd (M); for binding stoichiometry N: 298 K, single binding site model, DMB_CYYKI 0–2 molar ratio
T4 construct: pET22b-degP(full length; S210A)_6His; 6His (C); made in house
T4 sequence (P0C0V0 27-474 S236A): as the sequence (P0C0V0 27-474 C83S/C95S/S236A/N322C) above, with S57C, S69C, C296N counted along it
Protocol: ITC experiments were performed using Affinity ITC instruments (TA Instruments, New Castle, DE, USA) at 298 K. DegP^S210A mutant (18.10 μM for 0–2 molar ratio and 109.33 μM for 0–0.4 molar ratio), which were prepared in a buffer containing 5 mM phosphate (pH 8.0) were degassed at 295 K prior to measurements. Using a micro-syringe, 2.5 μL of DMB_CYYKI (300 μM) was added at intervals of 200 s to the DegP solution in the cell with gentle stirring. As for other ligands, 2.5 μL of MMB_CYYKI (453 μM), TMB_CYYKI (218.46 μM) or 18–58 substrate peptide (80 μM) was added at intervals of 200 s to the DegP solution (27.33 μM, 37.45 μM, and 20 μM, respectively). Data were fitted to the single binding site model. In experiments with 0–2 and 0–2.6 molar ratio of DMB_CYYKI and MMB_CYYKI, respectively, the data with 0–0.3 molar ratio were excluded for the fitting.

E. coli imp4213 = assay: microbe, parasite or virus in culture; type: cell-based, Escherichia coli
Protocol: The susceptibility of E. coli to activators was analyzed by determining the MICs. Two-fold serial dilutions of activators in LB broth were added to bacteria (OD600 = 0.1) in 96-well plates. Plates were incubated with shaking at 30 or 42 °C. After 12 h of incubation, the MIC was defined as the lowest concentration of the activator to inhibit the growth of bacteria by using a micro-plate reader (Absorbance 600 nm, Infinite M200pro, Tecan). The assay was performed in triplicates.

E.coli imp4213 strain = type: cell-based, Escherichia coli; details: 20 µg/ml alone; 12 h
Protocol: Time-kill experiment was performed by counting the viable bacteria at each time point. The E.coli imp4213 strain was cultured with streptomycin overnight and diluted 1:100 in fresh LB broth. When the OD600 value became 0.01, the activator was added at 2x MIC. The sample was incubated with shaking (180 rpm) at 30 °C or 42 °C, and aliquots were taken after 0, 1, 2, 4, 6, 8, 10, or 12 h. These aliquots were serially diluted (ten-fold) and plated on LB agar plates for colony counts. Experiments were performed in triplicates. The kill curves were plotted with the CFU/mL against time.
Experiments with cells in the stationary phase, however, were performed without dilution of the overnight culture.

DegP^WT (E. coli) = biological target: T1, DegP^WT (E. coli)
[3] = biological target: the molecule itself; assay: crystal structure; DegP^S210A (198 µM) incubated with TMB_CYYKI (297 µM) in 5 mM phosphate pH 8.0 for 1 h at 295 K; hanging drop, PEG3350 10%, tacsimate 0.1 M pH 3.4; molecular replacement with 3OTP
DegP^S210A [4] = biological target: B2; assay: ITC; 298 K, 5 mM phosphate pH 8.0; compound or peptide injected into DegP^S210A in the cell; single binding site model; for DMB_CYYKI (0–2 molar ratio) and MMB_CYYKI (0–2.6) the data at 0–0.3 molar ratio were excluded from the fit; details: both partners purified
DegP^S210A [5] = biological target: T2, DegP^S210A; assay: ITC
DegP^S210A (E. coli) = DegP^S210A (E. coli) (UniProt P0C0V0); assay: ITC; 298 K, 5 mM phosphate pH 8.0; compound or peptide injected into DegP^S210A in the cell; single binding site model; for DMB_CYYKI (0–2 molar ratio) and MMB_CYYKI (0–2.6) the data at 0–0.3 molar ratio were excluded from the fit
[6] = model Independent, DMB_CYYKI 0-2 molar ratio

Molecule `CC[C@H](C)[C@H](NC(=O)[C@H](CCCCN)NC(=O)[C@H](Cc1ccc(O)cc1)NC(=O)[C@H](Cc1ccc(O)cc1)NC(=O)[C@@H](N)CSCc1cccc(CSC[C@H](N)C(=O)N[C@@H](Cc2ccc(O)cc2)C(=O)N[C@@H](Cc2ccc(O)cc2)C(=O)N[C@@H](CCCCN)C(=O)N[C@H](C(=O)O)[C@@H](C)CC)c1)C(=O)O` [DMB_CYYKI] (I: H-CYYKI-OH / II: H-CYYKI-OH; linker I:1-II:1 via mXylylene) has an EC50 (DegP^S210A [1]) of 1100 nM, a Kd (DegP^S210A [2]; model Independent, 0-0.4 molar ratio) of 4.62e-07 M and a Kd (DegP^S210A [2]; [6]) of 2.39e-07 M.

Molecule `CC[C@H](C)[C@H](NC(=O)[C@H](CCCCN)NC(=O)[C@H](Cc1ccc(O)cc1)NC(=O)[C@H](Cc1ccc(O)cc1)NC(=O)[C@@H](N)CSCc1ccccc1)C(=O)O` [MMB_CYYKI] (H-C(Bn)YYKI-OH) has an EC50 (DegP^S210A [1]) of 6800 nM and a Kd (DegP^S210A [2]; [6]) of 6.32e-07 M.

Work on `CC[C@H](C)[C@H](NC(=O)[C@H](CCCCN)NC(=O)[C@H](Cc1ccc(O)cc1)NC(=O)[C@H](Cc1ccc(O)cc1)NC(=O)[C@@H](N)CSCc1cc(CSC[C@H](N)C(=O)N[C@@H](Cc2ccc(O)cc2)C(=O)N[C@@H](Cc2ccc(O)cc2)C(=O)N[C@@H](CCCCN)C(=O)N[C@H](C(=O)O)[C@@H](C)CC)cc(CSC[C@H](N)C(=O)N[C@@H](Cc2ccc(O)cc2)C(=O)N[C@@H](Cc2ccc(O)cc2)C(=O)N[C@@H](CCCCN)C(=O)N[C@H](C(=O)O)[C@@H](C)CC)c1)C(=O)O` [TMB_CYYKI] (I: H-CYYKI-OH / II: H-CYYKI-OH / III: H-CYYKI-OH; linker I:1-II:1-III:1 via TBMB) yielded an MIC (E. coli imp4213; imp4213, Fig. 3a and Supplementary Fig. 6b (30 °C and 42 °C), 12 h, LB) of 80 µM, an EC50 (DegP^S210A [1]) of 1700 nM and a Kd (DegP^S210A [2]; [6]) of 2.35e-07 M.

In the case of `O=C(N[C@H](CO)[C@H](O)c1ccc([N+](=O)[O-])cc1)C(Cl)Cl` [chloramphenicol, reference compound], the MIC (E. coli imp4213; Escherichia coli, IMP4213) is reported as 2 µg/mL and the “number of viable cells” value (E.coli imp4213 strain) is reported as “roughly at the same level”.

For `CO[C@H]1/C=C/O[C@@]2(C)Oc3c(C)c(O)c4c(O)c(c(/C=N/N5CCN(C)CC5)c(O)c4c3C2=O)NC(=O)/C(C)=C\C=C\[C@H](C)[C@H](O)[C@@H](C)[C@@H](O)[C@@H](C)[C@H](OC(C)=O)[C@@H]1C` [rifampicin, reference compound], the MIC (E. coli imp4213; Escherichia coli, IMP4213) was 0.008 µg/mL.

For `CN(C)[C@@H]1C(O)=C(C(N)=O)C(=O)[C@@]2(O)C(O)=C3C(=O)c4c(O)cccc4[C@@](C)(O)[C@H]3C[C@@H]12` [tetracycline, reference compound], the MIC (E. coli imp4213; Escherichia coli, IMP4213) was 1 µg/mL.

“DNYRGYSLGNWVSAAKFESNFNTQATNRNTDGSTDYGILQI [18–58, reference compound]” was tested, and the “binding stoichiometry N” value (DegP^S210A [2]) was 0.47, the “binding stoichiometry N” value (DegP^S210A [2]; listed as 18-58) was 0.473 and the “ΔH” value (DegP^S210A [2]; [6]) was -4.4 kcal/mol.

B1 gave a concentration of compound at maximal activation of reporter peptide (100 µM) cleavage by DegP; activation followed by inhibition at higher concentrations (DegP^WT (E. coli)) of 100 µM.

B2: binds [3].

In the case of B3, the “stoichiometry N” value (DegP^S210A [4]) is reported as 1.11 and the Kd (DegP^S210A [5]) is reported as 630 nM.

In the case of GTGDNYRGYSLGNWVSAAKFESNFNTQATNRNTDGSTDYGILQI [18–58 substrate peptide], the Kd (DegP^S210A [5]) is reported as 100 nM and the stoichiometry N (DegP^S210A (E. coli)) is reported as 0.47.
